Target: T1, HCV polymerase (NS5B570n-Con1) (Hepatitis C virus genotype 1b, UniProt Q9WMX2)
T1 construct: contains a 21 amino acid deletion at the C-terminus relative to the full-length HCV polymerase; 6-histidine (N); made in house; host or cells: E. coli BL21(DE) pLysS, plasmid pET 17b
Assay: HCV NS5B RNA Polymerase Activity
Format: biochemical, HCV Con1 strain
Experimental: The enzymatic activity of HCV polymerase (NS5B570n-Con1) was measured as the incorporation of radiolabeled nucleotide monophosphates into acid insoluble RNA products. Unincorporated radiolabeled substrate was removed by filtration and scintillant was added to the washed and dried filter plate containing radiolabeled RNA product. The amount of RNA product generated by NS5B570-Con1 at the end of the reaction was directly proportional to the amount of light emitted by the scintillant.
The N-terminal 6-histidine tagged HCV polymerase, derived from HCV Con1 strain, genotype 1b (NS5B570n-Con1) contains a 21 amino acid deletion at the C-terminus relative to the full-length HCV polymerase and was purified from E. coli strain BL21(DE) pLysS. The construct, containing the coding sequence of HCV NS5B Con1 (GenBank accession number AJ242654) was inserted into the plasmid construct pET 17b, downstream of a T7 promoter expression cassette and transformed into E. coli. A single colony was grown overnight as a starter culture and later used inoculate 10 L of LB media supplemented with 100 μg/mL ampicillin at 37° C. Protein expression was induced by the addition of 0.25 mM isopropyl-β-D-thiogalactopyranoside (IPTG) when optical density at […] of the culture was between 0.6 and 0.8 and cells were harvested after 16 to 18 h at 30° C. NS5B570n-Con1 was purified to homogeneity using a three-step protocol including subsequent column chromatography on Ni-NTA, SP-Sepharose HP and Superdex 75 resins.
Each 50 μL enzymatic reaction contained 20 nM RNA template derived from the complementary sequence of the Internal Ribosome Entry Site (cIRES), 20 nM NS5B570n-Con1 enzyme, 0.5 μCi of tritiated UTP (Perkin Elmer catalog no. TRK-412; specific activity: 30 to 60 Ci/mmol; stock solution concentration from 7.5×10^−5 M to 20.6×10^−6 M), 1 μM each ATP, CTP, and GTP, 40 mM Tris-HCl pH 8.0, 40 mM NaCl, 4 mM DTT (dithiothreitol), 4 mM MgCl2, and 5 μl of compound serial diluted in DMSO. Reaction mixtures were assembled in 96-well filter plates (cat #MADVN0B, Millipore Co.) and incubated for 2 h at 30° C. Reactions were stopped by addition of 10% final (v/v) trichloroacetic acid and incubated for 40 min at 4° C. Reactions were filtered, washed with 8 reaction volumes of 10% (v/v) trichloroacetic acetic acid, 4 reaction volumes of 70% (v/v) ethanol, air dried, and 25 μl of scintillant (Microscint 20, Perkin-Elmer) was added to each reaction well.
The amount of light emitted from the scintillant was converted to counts per minute (CPM) on a Topcount® plate reader (Perkin-Elmer, Energy Range: Low, Efficiency Mode Normal, Count Time: 1 min, Background Subtract: none, Cross talk reduction: Off).
Data was analyzed in Excel® (Microsoft) and ActivityBase® (Idbs®). The reaction in the absence of enzyme was used to determine the background signal, which was subtracted from the enzymatic reactions. Positive control reactions were performed in the absence of compound, from which the background corrected activity was set as 100% polymerase activity. All data was expressed as a percentage of the positive control. The compound concentration at which the enzyme-catalyzed rate of RNA synthesis was reduced by 50% (IC50) was calculated by fitting equation (i) to the data where“Y”
[formula] corresponds to the relative enzyme activity (in %), “% Min” is the residual relative activity at saturating compound concentration, “% Max” is the relative maximum enzymatic activity, “X” corresponds to the compound concentration, and “S” is the Hill coefficient (or slope).

SMILES	IC50 [nM]
CC(C)(C)c1cc(-c2cc(F)c[nH]c2=O)c2ncc(N3CCC(NS(C)(=O)=O)CC3)nc2c1 [Compound I-5]	817
COc1nc2c(-c3ccc[nH]c3=O)cc(C(C)(C)C)cc2cc1-c1ccc(NS(C)(=O)=O)cc1 [Compound I-1, N-{4-[6-tert-Butyl-2-methoxy-8-(2-oxo-1,2-dihydro-pyridin-3-yl)-quinolin-3-yl]-phenyl}-methanesulfonamide]	8
COc1c(C(C)(C)C)cc(-n2ccc(=O)[nH]c2=O)c2ncc(N3CC[C@H](CNS(C)(=O)=O)C3)cc12 [Compound I-52, N-{(S)-1-[6-tert-Butyl-8-(2,4-dioxo-3,4-dihydro-2H-pyrimidin-1-yl)-5-methoxy-quinolin-3-yl]-pyrrolidin-3-ylmethyl}-methanesulfonamide]	3.5
COc1ccc(-c2cc(C(C)(C)C)c(OC)c3cc(-c4ccc(NS(C)(=O)=O)cc4)cnc23)c(=O)[nH]1 [Compound I-34, N-{4-[6-tert-Butyl-5-methoxy-8-(6-methoxy-2-oxo-1,2-dihydro-pyridin-3-yl)-quinolin-3-yl]-phenyl}-methanesulfonamide]	10
COc1c(C(C)(C)C)cc(-c2cc(Cl)c(C)[nH]c2=O)c2ncc(-c3ccc(NS(C)(=O)=O)cc3)cc12 [Compound I-42, N-{4-[6-tert-Butyl-8-(5-chloro-6-methyl-2-oxo-1,2-dihydro-pyridin-3-yl)-5-methoxy-quinolin-3-yl]-phenyl}-methanesulfonamide]	0.6
COc1c(CC(F)(F)F)cc(N2CCC(=O)NC2=O)c2ncc(-c3ccc(NS(C)(=O)=O)cc3)cc12 [Compound I-30, N-{4-[8-(Dioxo-tetrahydro-pyrimidin-1-yl)-5-methoxy-6-(2,2,2-trifluoro-ethyl)-quinolin-3-yl]-phenyl}-methanesulfonamide]	17
COc1c(C(C)(C)C)cc(-c2ccc[nH]c2=O)c2ncc(-c3ccc(NS(C)(=O)=O)cc3)cc12 [Compound I-14, N-{4-[6-tert-Butyl-5-methoxy-8-(2-oxo-1,2-dihydro-pyridin-3-yl)-quinolin-3-yl]-phenyl}-methanesulfonamide]	1
COc1c(C2(C(F)F)CC2)cc(-c2ccc(C)[nH]c2=O)c2ncc(-c3ccc(NS(C)(=O)=O)cc3)cc12 [Compound I-37, N-{4-[6-(1-Difluoromethyl-cyclopropyl)-5-methoxy-8-(6-methyl-2-oxo-1,2-dihydro-pyridin-3-yl)-quinolin-3-yl]-phenyl}-methanesulfonamide]	9.9
Cc1nc2c(-c3ccc[nH]c3=O)cc(C(C)(C)C)cc2nc1-c1ccc(NS(C)(=O)=O)cc1 [Compound I-10, N-{4-[7-tert-Butyl-3-methyl-5-(2-oxo-1,2-dihydro-pyridin-3-yl)-quinoxalin-2-yl]-phenyl}-methanesulfonamide]	21
COc1c(C2(C(F)F)CC2)cc(-n2ccc(=O)[nH]c2=O)c2ncc(-c3ccc(NS(C)(=O)=O)cc3)cc12 [Compound I-39, N-{4-[6-(1-Difluoromethyl-cyclopropyl)-8-(2,4-dioxo-3,4-dihydro-2H-pyrimidin-1-yl)-5-methoxy-quinolin-3-yl]-phenyl}-methanesulfonamide]	3.4
COc1c(C(C)(C)C)cc(-c2ccc[nH]c2=O)c2ncc(Br)cc12 [Compound I-16]	59
CC(C)(C)c1cc(-c2ccc[nH]c2=O)c2ncc(-c3ccc(NS(C)(=O)=O)cc3F)nc2c1 [Compound I-8]	4
COc1c(C(C)(C)C)cc(-c2ccc(C)[nH]c2=O)c2ncc(OCCCNS(C)(=O)=O)cc12 [Compound I-45, N-{3-[6-tert-Butyl-5-methoxy-8-(6-methyl-2-oxo-1,2-dihydro-pyridin-3-yl)-quinolin-3-yloxy]-propyl}-methanesulfonamide]	11.8

System: not given
Assay: not given

SMILES	melting point [°C]
CC(C)(C)c1cc(-c2cc(F)c[nH]c2=O)c2ncc(N3CCC(NS(C)(=O)=O)CC3)nc2c1 [Compound I-5]	224 to 226
CC(C)(C)c1cc(-c2ccc[nH]c2=O)c2ncc(N3CCC(NS(C)(=O)=O)CC3)nc2c1	275 to 280
COc1nc2c(-c3ccc[nH]c3=O)cc(C(C)(C)C)cc2cc1-c1ccc(NS(C)(=O)=O)cc1 [Compound I-1, N-{4-[6-tert-Butyl-2-methoxy-8-(2-oxo-1,2-dihydro-pyridin-3-yl)-quinolin-3-yl]-phenyl}-methanesulfonamide]	274 to 276
CC(C)(C)c1cc(-c2cc(F)c[nH]c2=O)c2ncc(-c3ccc(NS(C)(=O)=O)cc3)cc2c1 [Compound I-12]	208 to 210

Reference: patent publication US8487103B2 (Roche Palo Alto LLC, priority 2009, dated 2013)
